Data set [1] has as its target T1, Recombinant human MMP 12 catalytic domain (Homo sapiens, UniProt P39900).
T1 construct: Recombinant human MMP 12 catalytic domain; made in house
Description: Isolated enzyme assay MMP12. As to conditions: read-out: hMMP12 IC50. Format: biochemical. How it is done:
Recombinant human MMP 12 catalytic domain may be expressed and purified as described by Parkar A. A. et al, (2000), Protein Expression and Purification, 20, 152. The purified enzyme can be used to monitor inhibitors of activity as follows: MMP12 (50 ng/ml final concentration) is incubated for 60 minutes at room temperature with the synthetic substrate Mca-Pro-Cha-Gly-Nva-His-Ala-Dpa-NH2 (10 μM) in assay buffer (0.1M “Tris-HCP” (trade mark) buffer, pH 7.3 containing 0.1M NaCl, 20 mM CaCl2, 0.020 mM ZnCl and 0.05% (w/v) “Brij 35” (trade mark) detergent) in the presence (10 concentrations) or absence of inhibitors. Activity is determined by measuring the fluorescence at λex 320 nm and λem 405 nm. Percent inhibition is calculated as follows: % Inhibition is equal to the [Fluorescenceplus inhibitor−Fluorescencebackground] divided by the [Fluorescenceminus inhibitor−Fluorescencebackground]. MMP8

For data set [2], the target named is T2, Recombinant human MMP9 catalytic domain (Homo sapiens, UniProt P14780).
T2 sequence (P14780 with tags, fused parts or gaps DEL216-390 limits assumed): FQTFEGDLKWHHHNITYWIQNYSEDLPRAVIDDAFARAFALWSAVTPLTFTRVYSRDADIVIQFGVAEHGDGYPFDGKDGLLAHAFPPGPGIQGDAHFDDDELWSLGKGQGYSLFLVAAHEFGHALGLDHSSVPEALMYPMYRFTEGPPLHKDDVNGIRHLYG
Kind of data set: Isolated enzyme assay MMP9. It counts as biochemical. As to conditions: read-out: hMMP9 IC50. How it is done:
Recombinant human MMP9 catalytic domain was expressed and then purified by Zn chelate column chromatography followed by hydroxamate affinity column chromatography. The enzyme can be used to monitor inhibitors of activity as follows: MMP9 (5 ng/ml final concentration) is incubated for 30 minutes at RT with the synthetic substrate Mca-Pro-Cha-Gly-Nva-His-Ala-Dpa-NH2 (5 μM) in assay buffer (0.1 M “Tris-HCl” (trade mark) buffer, pH 7.3 containing 0.1M NaCl, 20 mM CaCl2, 0.020 mM ZnCl and 0.05% (w/v) “Brij 35” (trade mark) detergent) in the presence (10 concentrations) or absence of inhibitors. Activity is determined by measuring the fluorescence at λex 320 nm and λem 405 nm. Percent inhibition is calculated as follows: % Inhibition is equal to the [Fluorescenceplus inhibitor−Fluorescencebackground] divided by the [Fluorescenceminus inhibitor−Fluorescencebackground]. MMP14
A protocol for testing against other matrix metalloproteinases, including MMP9, using expressed and purified pro MMP is described, for instance, by C. Graham Knight et al., (1992) FEBS Lett., 296(3), 263-266.

Another data set addresses T3, hMMP8 (Homo sapiens, UniProt P22894).
T3 construct: purchased Calbiochem
Kind of data set: Isolated enzyme assay MMP8. Format: biochemical. How it is done:
Purified pro-MMP8 is purchased from Calbiochem. The enzyme (at 10 μg/ml) is activated by p-amino-phenyl-mercuric acetate (APMA) at 1 mM for 2.5 h, 35° C. The activated enzyme can be used to monitor inhibitors of activity as follows: MMP8 (200 ng/ml final concentration) is incubated for 90 minutes at 35° C. (80% H2O) with the synthetic substrate Mca-Pro-Cha-Gly-Nva-His-Ala-Dpa-NH2 (12.5 μM) in assay buffer (0.1M “Tris-HCl” (trade mark) buffer, pH 7.5 containing 0.1M NaCl, 30 mM CaCl2, 0.040 mM ZnCl and 0.05% (w/v) “Brij 35” (trade mark) detergent) in the presence (10 concentrations) or absence of inhibitors. Activity is determined by measuring the fluorescence at λex 320 nm and λem 405 nm. Percent inhibition is calculated as follows: % Inhibition is equal to the [Fluorescenceplus inhibitor−Fluorescencebackground] divided by the [Fluorescenceminus inhibitor−Fluorescencebackground]. MMP9

Data set [3] has as its target T4, Recombinant human MMP 14 catalytic domain (Homo sapiens, UniProt P50281).
T4 construct: Recombinant human MMP 14 catalytic domain; made in house
Description: Isolated enzyme assay MMP14. Format: biochemical. As to conditions: read-out: hMMP14 IC50. How it is done: Recombinant human MMP 14 catalytic domain may be expressed and purified as described by Parkar A. A. et al, (2000), Protein Expression and Purification, 20, 152. The purified enzyme can be used to monitor inhibitors of activity as follows: MMP14 (10 ng/ml final concentration) is incubated for 60 minutes at room temperature with the synthetic substrate Mca-Pro-Cha-Gly-Nva-His-Ala-Dpa-NH2 (10 μM) in assay buffer (0.1M “Tris-HCl” (trade mark) buffer, pH 7.5 containing 0.1M NaCl, 20 mM CaCl2, 0.020 mM ZnCl and 0.05% (w/v) “Brij 35” (trade mark) detergent) in the presence (5 concentrations) or absence of inhibitors. Activity is determined by measuring the fluorescence at λex 320 nm and λem 405 nm. Percent inhibition is calculated as follows: % Inhibition is equal to the [Fluorescenceplus inhibitor−Fluorescencebackground] divided by the [Fluorescenceminus inhibitor−Fluorescencebackground].

For data set [4], the target named is T5, Recombinant human MMP19 catalytic domain (Homo sapiens, UniProt Q99542).
T5 construct: Recombinant human MMP19 catalytic domain; made in house
Kind of data set: Isolated enzyme assay MMP19. It counts as biochemical. As to conditions: read-out: hMMP19 IC50. How it is done: Recombinant human MMP19 catalytic domain may be expressed and purified as described by Parkar A. A. et al, (2000), Protein Expression and Purification, 20:152. The purified enzyme can be used to monitor inhibitors of activity as follows: MMP19 (40 ng/ml final concentration) is incubated for 120 minutes at 35° C. with the synthetic substrate Mca-Pro-Leu-Ala-Nva-Dpa-Ala-Arg-NH2 (5 μM) in assay buffer (0.1M “Tris-HCl ” (trade mark) buffer, pH 7.3 containing 0.1M NaCl, 20 mM CaCl2, 0.020 mM ZnCl and 0.05% (w/v) “Brij 35” (trade mark) detergent) in the presence (5 concentrations) or absence of inhibitors. Activity is determined by measuring the fluorescence at λex 320 nm and λem 405 nm. Percent inhibition is calculated as follows: % Inhibition is equal to the [Fluorescenceplus inhibitor−Fluorescencebackground] divided by the [Fluorescenceminus inhibitor−Fluorescencebackground].

The next data set concerns plasma protein. Description: Plasma protein binding by ultrafiltration. As to conditions: 10 μM, room temperature.
The nature of data set [5]: Determination of solubility in 0.1M phosphate buffer, pH 7.4. As to conditions: 20 °C, pH 7.4, aqueous buffer, thermodynamic from solid.
Description: Protocol for Determination of Solubility
The test compound (1 mg) was weighed into a 2 mL glass vial with a screw cap and 0.1 M phosphate buffer pH 7.4. (1.00 mL) was added. The sample vial was then sonicated for about 10 minutes and then placed on a shake board overnight at 20° C. The contents of the sample vial were then filtered through a Millipore Millex-LH 0.45 μm filter into a new 2 mL glass vial to give a clear solution. The clear solution (40 μL) was transferred to a new 2 mL glass vial and diluted with 0.1 M phosphate buffer, pH 7.4 (960 μL).
A standard calibration curve for each particular test compound was established using solutions of known concentration. These solutions of known concentration were normally chosen to have concentrations of ˜10 μg/mL and ˜50 μg/mL. They were prepared by dissolving a known weight of the compound in 99.5% ethanol (500 μL) and then sonicating for one minute if necessary. If the compound was still not completely dissolved, DMSO (500 μL) was added and the mixture sonicated for an additional one minute. The resulting solution was then diluted to the appropriate volume with a mixture of acetonitrile/100 mM ammonium acetate pH 5.5 20-50/80-50. If necessary, a further, more dilute, standard solution was prepared by dilution.

≈ marks a conversion by molar mass, not a printed value.

In general, IC50 refers to the midpoint of a concentration-inhibition curve. By solubility is commonly meant the concentration that dissolves in the medium under given conditions.

T5 sequence (Q99542 98-256 limits assumed): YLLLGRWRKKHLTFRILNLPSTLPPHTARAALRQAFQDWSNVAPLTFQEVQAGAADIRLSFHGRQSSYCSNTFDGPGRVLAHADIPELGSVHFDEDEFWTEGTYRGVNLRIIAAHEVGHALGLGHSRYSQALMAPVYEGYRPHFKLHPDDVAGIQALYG
T1 sequence (P39900 106-263 limits assumed): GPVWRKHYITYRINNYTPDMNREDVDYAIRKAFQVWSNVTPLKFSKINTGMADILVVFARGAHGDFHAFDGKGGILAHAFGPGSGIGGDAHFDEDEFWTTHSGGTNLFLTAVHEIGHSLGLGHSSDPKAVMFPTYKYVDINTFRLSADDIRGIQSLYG
T3 sequence (P22894 101-467): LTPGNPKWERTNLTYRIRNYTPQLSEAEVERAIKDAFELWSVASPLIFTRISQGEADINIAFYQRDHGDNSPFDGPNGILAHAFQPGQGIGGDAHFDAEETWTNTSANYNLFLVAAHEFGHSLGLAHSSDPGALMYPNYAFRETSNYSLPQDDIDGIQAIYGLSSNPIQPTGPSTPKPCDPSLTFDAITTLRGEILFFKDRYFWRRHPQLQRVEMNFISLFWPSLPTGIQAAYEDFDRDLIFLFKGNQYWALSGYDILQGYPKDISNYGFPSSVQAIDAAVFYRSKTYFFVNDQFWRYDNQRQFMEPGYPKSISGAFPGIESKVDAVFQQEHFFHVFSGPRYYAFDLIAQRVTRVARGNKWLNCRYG
Description for plasma protein: Plasma protein binding was determined by ultrafiltration in an automated 96 well format assay. On each test occasion the plasma protein binding of a reference compound (budesonide) was monitored in parallel.
Test compounds (10 mM dissolved in DMSO) were added to plasma to a final concentration of 10 μM and equilibrated at room temperature for 10 minutes. 350 μL of the plasma was transferred to an ultrafiltration plate, Microcon-96 (10 kDa cutoff, Millipore). The ultrafiltration plate was centrifuged at 3000 G for 70 minutes at room temperature. After centrifugation, the concentration of the compounds in the obtained plasma water (the unbound fraction) was determined by LC-MS/MS using a 3-point calibration curve and compared to the concentration in the original spiked plasma.
The analyses were performed using a gradient chromatographic system with acetic acid/acetonitrile as mobile phases.

For `C[C@]1(CS(=O)(=O)N2CC=C(C#Cc3ccc(Cl)cc3)CC2)NC(=O)NC1=O` [(5S)-5-({[4-[(4-chlorophenyl)ethynyl]-3,6-dihydropyridin-1(2H)-yl]sulfonyl}methyl)-5-methylimidazolidine-2,4-dione, reference compound], the IC50 in data set [1] turned out to be 2 nM; in data set [2], 9 nM; against hMMP8 it was 180 nM; in data set [3], 4300 nM; in data set [4], 3980 nM. For the same molecule, the “Protein binding (% free)” value in the data set on plasma protein is listed as 1.75 % free. The solubility in data set [5] worked out at 49 µM (≈ 20 µg/mL).

`Cc1ccc(C#CC2=CCN(S(=O)(=O)C[C@@]3(C)NC(=O)NC3=O)CC2)cc1` [(5S)-5-methyl-5-({[4-[(4-methylphenyl)ethynyl]-3,6-dihydropyridin-1(2H)-yl]sulfonyl}methyl)imidazolidine-2,4-dione, reference compound]: the IC50 in data set [1] turned out to be 3 nM; in data set [2], 34 nM; against hMMP8 it was 384 nM; in data set [3], 4430 nM; in data set [4], 1970 nM. Besides, the “Protein binding (% free)” value in the data set with plasma protein is 2.25 % free. Further, the concentration in solution in data set [5] (solubility) was 72 µM (≈ 27.9 µg/mL).

Turning to `C[C@]1(CS(=O)(=O)N2CC=C(C#Cc3cnc(C4CC4)nc3)CC2)NC(=O)NC1=O` [Example 1, (5S)-5-({[4-[(2-Cyclopropylpyrimidin-5-yl)ethynyl]-3,6-dihydropyridin-1(2H) -yl]sulfonyl}methyl)-5-methylimidazolidine-2,4-dione], the 50% inhibitory concentration (IC50) in data set [1] was 6 nM; in data set [2], 5 nM; on hMMP8, 2530 nM; in data set [3], above 10000 nM. Besides, the “Protein binding (% free)” value in the data set on plasma protein turned out to be 18 % free. For the same molecule, the concentration in solution in data set [5] (solubility) was 396 µM (≈ 165 µg/mL).

In the case of `C[C@]1(CS(=O)(=O)N2CC=C(C#Cc3cnc(C(F)(F)F)nc3)CC2)NC(=O)NC1=O` [Example 3], the “Solubility pH 7.4” value is listed as 118 μM. The IC50 in data set [1] amounted to 6 nM. In addition, the IC50 in data set [2] is 5 nM. Moreover, the IC50 against hMMP8 was 547 nM. The IC50 in data set [3] is above 10000 nM. For the same molecule, the IC50 in data set [4] amounted to 7900 nM.

For the molecule `CCc1ncc(C#CC2=CCN(S(=O)(=O)C[C@@]3(C)NC(=O)NC3=O)CC2)cn1.O=C(O)C(F)(F)F` [Example 5, (5S)-5-({[4-[(2-Ethylpyrimidin-5-yl)ethynyl]-3,6-dihydropyridin-1(2H) -yl]sulfonyl}methyl)-5-methylimidazolidine-2,4-dione trifluoroacetate], the IC50 in data set [1] was 9 nM; in data set [2] it was 9 nM; on hMMP8, 1140 nM; in data set [3] it was above 10000 nM. Besides, in the data set on plasma protein, the “Protein binding (% free)” value is reported as 47 % free. This molecule also had a solubility in data set [5] of 91 µM.

These data come from patent US7989620B2, “Hydantoin derivatives for the treatment of obstructive airway diseases” (AstraZeneca AB, priority 2004, dated 2011).
